Key:
[1] = Measurement of acetal hydrolysis kinetics (absorbance vs time in buffered solutions); format: physicochemical; conditions: formaldehyde-derived vs acetaldehyde-derived acetal
From the text: To illustrate the rate of cleavage of several example ortho carboxy phenol derived acetals, we synthesized the molecules 1-3 (shown in FIG. 2) and measured the rates of acetal hydrolysis for each at pH 5.2-7.3. • Acetal 1. R′, R=alkyl; and R1, R2, R3, R4=hydrogen • Acetal 2. R′, R=alkyl; R1, R4=hydrogen; R2=carboxyl (carbon-containing group); R3=hydroxyl (heteroatom) • Acetal 3. R′=alkyl; R, R2, R3, R4=hydrogen; and R1=carboxyl (carbon-containing group)
To determine the rate of acetal hydrolysis, compounds 1-3 were added to buffered solutions (pH 7-8 with 5 mM HEPES, or pH 5-7 with 5 mM acetate) at various pH values and the absorbance of the solution was measured as a function of time (λ=302 nm for 1 and 2 and 310 nm for 3). The rate constant was determined by determining the slope of the line derived from plotting ln[1−((A∞−At)/(A28−Ao))] as a function of time t, where A28 is absorbance after >3 hours of hydrolysis, At is the absorbance at time t, and Ao is the initial absorbance. The half-life of the hydrolysis equals ln[2] divided by the rate constant.

[2] = test system: Hepa mouse hepatoma cells; assay: DNA transfection, luciferase expression (pCIluc/DW921 complexes with crosslinker); format: cell-based; conditions: pCIluc 10 μg/mL, DW921 100 μg/mL, 48 h, average of two wells
Description: To a solution of plasmid DNA pCIluc (10 μg/mL, 0.075 mM in phosphate, 2.6 μg/μL pCIluc; prepared according to Danko et al. 1997) in 0.5 mL of 150 mM NaCl and 5 mM TAPS pH 9 was added 100 μg/mL DW921. The complexes were then reacted with glutaraldehyde, periodate oxidized phenyl glucoside (another crosslinker containing a labile bond), or periodate oxidized salicylic galactoside at 1, 2, 4, 8, or 16 μg/mL. The complexes were then added (200 μL) to wells containing Hepa mouse hepatoma cells in Dulbecco's modified Eagle's Media containing 10% fetal bovine serum. The cells were allowed to incubate for 48 h. The cells were then harvested and assayed for luciferase expression as previously reported. The amount of transfection was reported in relative light units and is the average transfection for two separate wells of cells.

SMILES | rate of acetal hydrolysis relative to acetals derived from alkyl-substituted aldehydes (acetals 1 and 2) [1] | Relative Light Units (luciferase expression) ([2]; 2 μg/mL dialdehyde crosslinker) [Relative Light Units] | Relative Light Units (luciferase expression) ([2]; 4 μg/mL dialdehyde crosslinker) | Relative Light Units (luciferase expression) ([2]; 8 μg/mL dialdehyde crosslinker) [Relative Light Units]
CC(C)[C@@H]1CC[C@@H](C)C[C@H]1OCOc1c(C(=O)O)cccc1C(=O)O [Acetal 3] | hydrolyze more slowly |  |  | 
O=CCCCC=O [glutaraldehyde] |  | 620 | 1,400 Relative Light Units | 590
